We go through one compound from ChEMBL document CHEMBL1144021, “Molecular determinants of the anticonvulsant felbamate binding site in the N-methyl-D-aspartate receptor” (J Med Chem, 2008).

Molecules are shown by their SMILES.

The inhibition is the percentage by which the read-out fell short of the control.

Test [1] deals with Glutamate receptor ionotropic, NMDA 2B (Homo sapiens), Q13224 [S645A]. Put plainly: Inhibition of NR2B receptor M3c S645A mutant expressed in Xenopus oocytes assessed as NMDA current at 0.5 mM relative to control. The class given is cell-based. The settings on record: Oocyte.
Glutamate receptor ionotropic, NMDA 2B (Homo sapiens), Q13224 [S645A], sequence (Q13224 whole entry S645A): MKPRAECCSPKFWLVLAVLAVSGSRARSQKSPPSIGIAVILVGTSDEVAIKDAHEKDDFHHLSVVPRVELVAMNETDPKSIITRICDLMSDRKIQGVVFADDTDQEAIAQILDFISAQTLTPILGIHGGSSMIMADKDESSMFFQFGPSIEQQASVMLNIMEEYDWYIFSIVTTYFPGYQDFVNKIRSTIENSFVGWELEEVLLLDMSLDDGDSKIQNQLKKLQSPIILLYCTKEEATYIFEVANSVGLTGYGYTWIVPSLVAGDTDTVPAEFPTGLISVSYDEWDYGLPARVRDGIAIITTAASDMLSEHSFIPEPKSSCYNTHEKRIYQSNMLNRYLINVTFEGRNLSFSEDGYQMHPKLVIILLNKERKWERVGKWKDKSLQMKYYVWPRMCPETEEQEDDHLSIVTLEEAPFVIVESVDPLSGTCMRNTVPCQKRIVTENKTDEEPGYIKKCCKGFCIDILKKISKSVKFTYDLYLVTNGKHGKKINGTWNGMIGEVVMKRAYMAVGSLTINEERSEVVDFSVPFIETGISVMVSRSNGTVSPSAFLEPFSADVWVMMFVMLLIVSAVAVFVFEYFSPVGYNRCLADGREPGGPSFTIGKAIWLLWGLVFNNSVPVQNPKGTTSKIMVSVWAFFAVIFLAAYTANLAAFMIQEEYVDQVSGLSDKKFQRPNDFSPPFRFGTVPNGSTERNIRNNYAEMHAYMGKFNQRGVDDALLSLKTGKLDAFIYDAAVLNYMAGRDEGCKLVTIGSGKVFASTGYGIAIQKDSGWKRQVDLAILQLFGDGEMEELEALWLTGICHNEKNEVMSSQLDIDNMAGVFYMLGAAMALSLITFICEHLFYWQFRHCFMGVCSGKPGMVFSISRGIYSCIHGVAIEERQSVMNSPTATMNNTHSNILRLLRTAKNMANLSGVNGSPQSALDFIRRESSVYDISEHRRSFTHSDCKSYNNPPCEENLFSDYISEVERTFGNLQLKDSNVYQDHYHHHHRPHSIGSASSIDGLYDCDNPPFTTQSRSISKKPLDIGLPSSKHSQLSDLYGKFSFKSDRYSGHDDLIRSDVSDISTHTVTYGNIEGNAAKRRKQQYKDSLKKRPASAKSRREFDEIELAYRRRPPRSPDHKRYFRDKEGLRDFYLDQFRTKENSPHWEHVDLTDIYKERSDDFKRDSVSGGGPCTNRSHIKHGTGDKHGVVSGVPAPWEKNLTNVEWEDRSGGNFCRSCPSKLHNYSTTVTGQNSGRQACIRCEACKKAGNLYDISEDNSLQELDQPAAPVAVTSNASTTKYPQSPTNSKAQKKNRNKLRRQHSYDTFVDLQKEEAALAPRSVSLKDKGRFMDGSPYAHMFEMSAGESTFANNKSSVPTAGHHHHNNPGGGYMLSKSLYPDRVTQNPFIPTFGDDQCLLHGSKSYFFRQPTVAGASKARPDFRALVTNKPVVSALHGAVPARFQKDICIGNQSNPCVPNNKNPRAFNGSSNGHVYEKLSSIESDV
For test [2], the system named is Glutamate receptor ionotropic, NMDA 2B (Homo sapiens), Q13224 [[…]]. Put plainly: Binding affinity to NR2B receptor M3c T647A mutant.
The test system of test [3] is Glutamate receptor ionotropic, NMDA 2B (Homo sapiens), Q13224 [A652T]. The test can be described thus: Binding affinity to NR2B receptor M3c A652T mutant.
Glutamate receptor ionotropic, NMDA 2B (Homo sapiens), Q13224 [A652T], sequence (Q13224 whole entry A652T): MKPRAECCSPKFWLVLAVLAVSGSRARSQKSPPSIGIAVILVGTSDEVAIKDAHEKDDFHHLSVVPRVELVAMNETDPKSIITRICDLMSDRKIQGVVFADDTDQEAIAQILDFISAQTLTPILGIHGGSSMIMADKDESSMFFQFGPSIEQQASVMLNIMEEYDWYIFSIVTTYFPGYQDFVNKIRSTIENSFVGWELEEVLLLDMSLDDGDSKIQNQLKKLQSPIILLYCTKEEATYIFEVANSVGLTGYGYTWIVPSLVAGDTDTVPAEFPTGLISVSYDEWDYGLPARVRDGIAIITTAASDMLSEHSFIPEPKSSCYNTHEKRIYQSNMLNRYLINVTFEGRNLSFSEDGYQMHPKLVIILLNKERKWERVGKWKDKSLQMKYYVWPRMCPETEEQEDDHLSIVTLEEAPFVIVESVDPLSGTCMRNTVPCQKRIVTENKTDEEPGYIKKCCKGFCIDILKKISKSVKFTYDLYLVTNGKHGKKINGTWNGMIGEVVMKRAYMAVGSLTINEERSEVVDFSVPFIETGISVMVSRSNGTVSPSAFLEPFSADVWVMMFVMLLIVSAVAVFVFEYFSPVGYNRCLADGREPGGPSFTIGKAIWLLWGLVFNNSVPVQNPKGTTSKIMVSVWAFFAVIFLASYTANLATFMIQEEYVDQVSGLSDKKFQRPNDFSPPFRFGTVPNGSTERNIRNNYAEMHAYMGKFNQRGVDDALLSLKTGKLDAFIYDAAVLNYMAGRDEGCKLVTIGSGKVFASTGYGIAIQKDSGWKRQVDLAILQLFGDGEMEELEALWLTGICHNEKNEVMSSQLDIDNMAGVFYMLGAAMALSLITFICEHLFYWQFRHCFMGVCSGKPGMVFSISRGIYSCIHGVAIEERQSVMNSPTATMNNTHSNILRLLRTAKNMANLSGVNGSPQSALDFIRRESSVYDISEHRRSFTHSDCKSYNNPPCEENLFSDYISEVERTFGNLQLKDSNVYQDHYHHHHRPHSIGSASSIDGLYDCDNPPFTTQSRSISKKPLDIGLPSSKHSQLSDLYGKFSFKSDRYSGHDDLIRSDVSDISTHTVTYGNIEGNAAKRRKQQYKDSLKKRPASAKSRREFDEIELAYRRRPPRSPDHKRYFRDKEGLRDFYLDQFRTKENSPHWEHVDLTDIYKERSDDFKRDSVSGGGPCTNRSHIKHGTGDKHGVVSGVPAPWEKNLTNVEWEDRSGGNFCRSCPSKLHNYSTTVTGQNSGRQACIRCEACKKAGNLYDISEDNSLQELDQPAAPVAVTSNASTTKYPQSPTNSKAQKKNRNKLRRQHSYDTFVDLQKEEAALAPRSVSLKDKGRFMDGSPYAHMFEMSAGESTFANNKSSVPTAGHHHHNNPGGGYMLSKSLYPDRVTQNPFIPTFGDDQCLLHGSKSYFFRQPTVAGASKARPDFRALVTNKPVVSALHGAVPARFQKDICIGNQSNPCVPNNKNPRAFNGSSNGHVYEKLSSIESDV
Test [4] concerns Glutamate receptor ionotropic, NMDA 2B (Homo sapiens), Q13224 [L643C,T647A]. The test can be described thus: Binding affinity to NR2B receptor L643C/T647A mutant.
Test [5] has as its system Glutamate receptor ionotropic, NMDA 2B (Homo sapiens), Q13224 [F182A]. Put plainly: Inhibition of NR2B receptor ATD F182A mutant expressed in Xenopus oocytes assessed as NMDA current at 0.5 mM relative to control. The class given is cell-based. The settings on record: Oocyte.
Test [6] concerns Glutamate receptor ionotropic, NMDA 2B (Homo sapiens), Q13224 [S555A]. The test can be described thus: Inhibition of NR2B receptor Pre-M1 S555A mutant expressed in Xenopus oocytes assessed as NMDA current at 0.5 mM relative to control. The class given is cell-based. As to conditions: Oocyte.
Glutamate receptor ionotropic, NMDA 2B (Homo sapiens), Q13224 [S555A], sequence (Q13224 whole entry S555A): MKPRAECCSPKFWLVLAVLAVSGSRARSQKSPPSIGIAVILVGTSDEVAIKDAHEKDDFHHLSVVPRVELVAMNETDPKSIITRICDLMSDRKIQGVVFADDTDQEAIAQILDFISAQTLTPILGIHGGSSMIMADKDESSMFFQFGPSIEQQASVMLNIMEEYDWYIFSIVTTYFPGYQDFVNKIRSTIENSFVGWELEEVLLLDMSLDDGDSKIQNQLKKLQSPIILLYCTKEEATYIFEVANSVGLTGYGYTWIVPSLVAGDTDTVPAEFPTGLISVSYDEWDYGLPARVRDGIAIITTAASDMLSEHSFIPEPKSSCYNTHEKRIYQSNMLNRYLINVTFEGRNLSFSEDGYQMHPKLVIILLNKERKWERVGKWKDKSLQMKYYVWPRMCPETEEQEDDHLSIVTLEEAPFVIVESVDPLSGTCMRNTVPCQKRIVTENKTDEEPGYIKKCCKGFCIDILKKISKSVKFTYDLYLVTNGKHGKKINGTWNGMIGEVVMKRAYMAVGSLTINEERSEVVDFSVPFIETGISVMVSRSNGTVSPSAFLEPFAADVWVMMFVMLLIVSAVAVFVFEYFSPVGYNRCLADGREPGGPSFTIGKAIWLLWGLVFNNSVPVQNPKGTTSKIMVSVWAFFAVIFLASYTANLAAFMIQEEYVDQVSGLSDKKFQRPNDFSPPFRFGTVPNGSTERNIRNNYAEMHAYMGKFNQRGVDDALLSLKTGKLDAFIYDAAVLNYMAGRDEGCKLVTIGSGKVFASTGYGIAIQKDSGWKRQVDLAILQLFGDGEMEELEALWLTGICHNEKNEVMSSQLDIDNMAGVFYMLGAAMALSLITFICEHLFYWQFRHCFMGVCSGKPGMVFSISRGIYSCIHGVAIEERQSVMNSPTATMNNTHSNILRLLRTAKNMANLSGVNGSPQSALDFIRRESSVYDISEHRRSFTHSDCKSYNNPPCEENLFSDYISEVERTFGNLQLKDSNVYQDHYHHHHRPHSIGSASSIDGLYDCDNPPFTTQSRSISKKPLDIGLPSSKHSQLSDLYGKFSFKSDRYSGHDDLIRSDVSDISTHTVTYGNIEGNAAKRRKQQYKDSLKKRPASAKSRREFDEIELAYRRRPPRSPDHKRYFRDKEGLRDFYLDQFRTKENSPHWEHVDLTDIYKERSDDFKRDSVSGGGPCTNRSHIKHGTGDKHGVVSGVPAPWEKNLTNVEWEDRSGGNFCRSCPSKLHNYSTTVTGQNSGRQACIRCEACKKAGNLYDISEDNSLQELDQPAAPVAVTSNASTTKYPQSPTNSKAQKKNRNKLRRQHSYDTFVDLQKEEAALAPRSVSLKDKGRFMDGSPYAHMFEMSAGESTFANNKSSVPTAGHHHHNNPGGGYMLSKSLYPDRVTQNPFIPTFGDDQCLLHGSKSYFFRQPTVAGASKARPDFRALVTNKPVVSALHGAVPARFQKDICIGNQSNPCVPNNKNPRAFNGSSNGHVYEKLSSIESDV
Test [7] has as its system Glutamate receptor ionotropic, NMDA 2B (Homo sapiens), Q13224 [F642A]. The test can be described thus: Inhibition of NR2B receptor M3c F642A mutant expressed in Xenopus oocytes assessed as NMDA current at 0.5 mM relative to control. The class given is cell-based. As to conditions: Oocyte.
In test [8] the test system is Glutamate receptor ionotropic, NMDA 2B (Homo sapiens), Q13224 [A652T]. Put plainly: Inhibition of NR2B receptor M3c A652T mutant expressed in Xenopus oocytes assessed as NMDA current at 0.5 mM relative to control. The settings on record: Oocyte. The class given is cell-based.
The test system of test [9] is Glutamate receptor ionotropic, NMDA 2B (Homo sapiens), Q13224 [T103A]. Put plainly: Binding affinity to NR2B receptor ATD T103A mutant.
Test [10] can be described thus: Ratio of Kapp for wild type NR2B receptor to Kapp for NR2B receptor L643A/T647A mutant.
A short description of test [11]: Ratio of Kapp for wild type NR2B receptor to Kapp for NR2B receptor L643C/T647A mutant.
A short description of test [12]: Ratio of Kapp for wild type NR2B receptor to Kapp for NR2B receptor T647A/S645A mutant.
Test [13] is described as follows: Ratio of Kapp for wild type NR2B receptor to Kapp for NR2B receptor S645A/T103A mutant.
For test [14], the system named is Glutamate receptor ionotropic, NMDA 2B (Homo sapiens), Q13224 [S645A,T103A]. Put plainly: Binding affinity to NR2B receptor S645A/T103A mutant.
Test [15] can be described thus: Ratio of Kapp for wild type NR2B receptor to Kapp for ATD NR2B receptor F176A mutant.
Test [16] can be described thus: Ratio of Kapp for wild type NR2B receptor to Kapp for NR2B receptor M3c I641A mutant.
Test [17] is described as follows: Ratio of Kapp for wild type NR2B receptor to Kapp for NR2B receptor M3c L643A mutant.
The nature of test [18]: Ratio of Kapp for wild type NR2B receptor to Kapp for NR2B receptor M3c A652T mutant.
Test [19] can be described thus: Ratio of Kapp for wild type NR2B receptor to Kapp for NR2B receptor T103A/K234A mutant.

For the compound `NC(=O)OCC(COC(N)=O)c1ccccc1`, the inhibition in test [1] was 85%; in test [5] it was 72%; in [6], 72%; in [7], 75%; in [8] it was 83%. The Kapp in test [2] stood at 6.5 mM; in test [3] it was 2.92 mM; in [4] it was 18.6 mM; in [9] it was 4.21 mM; in test [14] it was 6.28 mM. The Ratio Ki(app) was 40 in test [10]; 21 in test [11]; 8.1 in [12]; 7.2 in test [13]; 3.2 in [15]; 2.8 in test [16]. The Ratio Ki(app) stood at 6.5 in [17], 3.3 in [18] and 4.8 in test [19].
